Experimental data as given in ChEMBL document CHEMBL1127945, “5-Aryl-, butenolide, a new class of antibacterial derived from the N-aryl oxazolidinone DUP 721” (1994).
In brackets after ≈: the same amount, converted by molar mass.

Columns and labels:
Format in all cases: functional
Staphylococcus aureus [1] = assay: In vitro antibacterial activity against oxacilline resistant strain Staphylococcus aureus O11CB20
Enterococcus faecium [2] = assay: In vitro antibacterial activity against vancomycin resistant strain Streptococcus faecium 02D3IP1
Enterococcus faecium [3] = assay: In vitro antibacterial activity against sensitive strain Streptococcus faecium M78L
Streptococcus pyogenes = assay: In vitro antibacterial activity against sensitive strain Streptococcus pyogenes 77A
[4] = tested on: Staphylococcus epidermidis; assay: In vitro antibacterial activity against oxacilline resistant strain Staphylococcus epidermidis 012GO39
Enterococcus faecalis = assay: In vitro antibacterial activity against vancomycin resistant strain Streptococcus faecalis 02D2DU17
Staphylococcus aureus [5] = assay: In vitro antibacterial activity against sensitive strain Staphylococcus aureus SG 511
Escherichia coli = assay: In vitro antibacterial activity against Escherichia coli UC 1894

SMILES | MIC (Staphylococcus aureus [1]) | MIC (Enterococcus faecium [2]) | MIC (Enterococcus faecium [3]) | MIC (Streptococcus pyogenes) | MIC [4] | MIC (Enterococcus faecalis) | MIC (Staphylococcus aureus [5]) | MIC (Escherichia coli)
CC(=O)NC[C@H]1C=C(c2ccc(C(C)=O)cc2)C(=O)O1 | 1.2 µg/mL (≈ 4.39 µM) | 2.5 µg/mL (≈ 9.15 µM) | 5 µg/mL (≈ 18.3 µM) | 2.5 µg/mL (≈ 9.15 µM) | 2.5 µg/mL (≈ 9.15 µM) | 2.5 µg/mL (≈ 9.15 µM) | 1.2 µg/mL (≈ 4.39 µM) | > 40 µg/mL
CC(=O)NC[C@@H]1CC(=O)N(c2ccc(C(C)=O)cc2)C1 |  | > 40 µg/mL | > 40 µg/mL | > 40 µg/mL | > 40 µg/mL | > 40 µg/mL | > 40 µg/mL | > 40 µg/mL
CC(=O)NC[C@@H]1CCN(c2ccc(C(C)=O)cc2)C1 |  | > 40 µg/mL | > 40 µg/mL | > 40 µg/mL | > 40 µg/mL | > 40 µg/mL | > 40 µg/mL | > 40 µg/mL
CC(=O)NC[C@H]1CN(c2ccc(C(C)=O)cc2)C(=O)O1 [DUP-721] | 1.2 µg/mL (≈ 4.34 µM) | < 1.2 µg/mL | 2.5 µg/mL (≈ 9.05 µM) | 0.6 µg/mL (≈ 2.17 µM) | 2.5 µg/mL (≈ 9.05 µM) | 2.5 µg/mL (≈ 9.05 µM) | 1.2 µg/mL (≈ 4.34 µM) | > 40 µg/mL
